These results are taken from patent US20140221490A1, “METHODS OF TREATING PAIN” (Hospira, Inc., priority 2011, published 2014).

Where two headings read alike, the source gives them in different places.

Data set [1] in a line: Study 2: pharmacokinetics of HPβCD-diclofenac and excipient HPβCD in subjects with renal or hepatic impairment and healthy subjects (crossover vs itraconazole). It is filed as in vivo, human. As to conditions: for AUC(0 − t) / AUC∞ / CL / Vz / t½ / λz: mean ± SD; for Tmax: median; for maximum HPβCD plasma concentration: after administration of Dyloject. The method, then: Subjects with mild chronic hepatic impairment, as defined by Child-Pugh Classification A, Score of 5 to 6 and a bilirubin of ≦2.5 mg/dl, were recruited. Subjects with renal or hepatic impairment were included if they were between 18-75 years of age, and healthy subjects between 18 and 65 years of age.
Inclusion criteria for healthy subjects were similar to those for Study 1. Healthy subjects were required to have normal renal function, defined as CrCl>80 mL/min, and normal hepatic function. […]
Similar to Study 1, there were allowances for a greater breadth of co-morbid conditions in the renal and hepatic groups. […] Diabetic patients must have been on a stable therapeutic regimen for four weeks.
Exclusion criteria included pregnancy, uncontrolled or poorly controlled diabetes, use of dialysis, fluctuating or rapidly deteriorating hepatic function, hepatic or other cancers, organ transplantation or immunosuppression, acute infections, or asthma. Subjects were excluded for any serious cardiovascular events, such as myocardial infarction, coronary artery bypass surgery or percutaneous coronary intervention, unstable angina, stroke or congestive heart failure. Restrictions were also placed on certain disease states, such as current intestinal disorders or infections, peptic ulcers, GI bleeding or cerebral hemorrhage. Subjects who were positive for hepatitis B or hepatitis C were excluded from the healthy and renal groups, but were included in the subjects with mild chronic hepatic impairment. […] Hypersensitivity to NSAIDs or diclofenac also prompted exclusion.
Subjects with renal or hepatic impairment reported to the study site on study day 0 and remained at the site for two nights and two days. […] Subjects were discharged on study day 2 after being assessed by the investigator, and returned 7±3 days after dosing for final safety assessments. If there were no abnormal findings at discharge, the follow-up visit was completed via telephone.
Healthy subjects reported to the study site on study day 0 and remained at the site for three nights and three days. […] Blood samples were obtained as described above for renal and hepatic subjects. […] For itraconazole, one blood sample was to be drawn at each time point to assay for HPβCD concentrations. Subjects were discharged on study day 3 after being assessed by the investigator, and returned 7±3 days after receiving the last dose of study drug for safety assessments.
The LOQ for the HPβCD assay was 100 ng/ml.
Pharmacokinetic parameters were calculated using non-compartmental analysis. Only those plasma concentrations equal to or greater than the lower limit of quantitation were used in the analysis. Actual sampling times were used in all pharmacokinetic analyses.
The maximum serum concentration (Cmax) and time to Cmax (Tmax) were taken directly from the data. The elimination rate constant, λz, was calculated as the negative of the slope of the terminal log-linear segment of the serum concentration-time curve. The range of data used for each subject and treatment was determined by visual inspection of a semi-logarithmic plot of concentration vs. time. Elimination half-life (t½) was calculated according to the following equation;
where Ctf is the final concentration≧: LOQ. Total plasma clearance (CL) was calculated as Dose/AUC, and volume of distribution (Vz) was calculated as Dose/λz AUC.
Comparisons among the three subject types were done using […]. The same model was used to test for the effect of hepatic impairment on the pharmacokinetics of diclofenac and HPβCD but without additional comparisons, as there were only two groups.

For data set [2] the following is noted: cited from earlier work; for K1:1, stability constant of 1:1 inclusion complex with HPβCD: literature reference; for Prot. bind., drug fraction bound to protein (fP): plasma; for Cmax: read-out: Cmax, maximum drug concentration in plasma, based on the drug's pharmacokinetics and administration of a normal drug dose.
Where [3] appears, read: Study 2, Healthy matches (to hepatic group), 37.5 mg HPβCD-diclofenac IV, plasma HPβCD.
The mark [4] stands for this setting: Study 2, Healthy matches (to renal groups), 37.5 mg HPβCD-diclofenac IV, plasma HPβCD.
Where [5] appears, read: Study 2, Healthy, plasma HPβCD after 37.5 mg HPβCD-diclofenac IV.
The mark [6] stands for this setting: Study 2, Healthy, plasma HPβCD after 200 mg itraconazole IV.
[7] abbreviates: Study 2, Mild Hepatic, 37.5 mg HPβCD-diclofenac IV, plasma HPβCD.
[8] abbreviates: Study 2, Mild Renal, 37.5 mg HPβCD-diclofenac IV, plasma HPβCD.
Where [9] appears, read: Study 2, Moderate renal, 37.5 mg HPβCD-diclofenac IV, plasma HPβCD.
[10] abbreviates: moderate renal insufficiency compared to healthy subjects.
[11] abbreviates: subjects with moderate renal insufficiency, 37.5 mg dose of HPβCD-diclofenac.

Take `CC(O)COC[C@H]1O[C@@H]2O[C@H]3[C@H](O)[C@@H](O)[C@@H](O[C@H]4[C@H](O)[C@@H](O)[C@@H](O[C@H]5[C@H](O)[C@@H](O)[C@@H](O[C@H]6[C@H](O)[C@@H](O)[C@@H](O[C@H]7[C@H](O)[C@@H](O)[C@@H](O[C@H]8[C@H](O)[C@@H](O)[C@@H](O[C@H]1[C@H](O)[C@H]2O)O[C@@H]8COCC(C)O)O[C@@H]7COCC(C)O)O[C@@H]6COCC(C)O)O[C@@H]5COCC(C)O)O[C@@H]4COCC(C)O)O[C@@H]3COCC(C)O` (stereo partly drawn) [HPβCD, hydroxypropyl-beta-cyclodextrin]: the “PK in subjects with mild hepatic impairment versus matched healthy controls” value in data set [1] (37.5 mg IV) was “no differences”. In addition, the “exposure to HPβCD, geometric least squares mean ratio of AUC∞, relative to 8000 mg as Sporanox” value in data set [1] (333.3 mg HPβCD as HPβCD-diclofenac, healthy subjects) turned out to be 4.58%. In addition, the “AUC(0 − t)” value in data set [1] (setting [3]) is given as 52,982 ± 11,267 h × ng/mL; in data set [1] (setting [4]), 66,449 ± 12,642 h × ng/mL; in data set [1] (setting [5]), 58,994 ± 14,123 h × ng/mL; in data set [1] (setting [7]), 55,946 ± 17,233 h × ng/mL; in data set [1] (setting [8]) it was 127,141 ± 90,489 h × ng/mL; in data set [1] (setting [9]), 169,042 ± 52,722 h × ng/mL. The “AUC∞” value in data set [1] (setting [3]) is given as 53,651 ± 11,321 h × ng/mL; in data set [1] (setting [4]), 67,316 ± 12,615 h × ng/mL; in data set [1] (setting [5]), 59,709 ± 14,217 h × ng/mL; in data set [1] (setting [7]), 56,802 ± 17,412 h × ng/mL; in data set [1] (setting [8]), 128,349 ± 91,132 h × ng/mL; in data set [1] (setting [9]), 165,728 ± 60,386 h × ng/mL. In addition, the CL in data set [1] (setting [3]) was 107 ± 21.2 mL/min; in data set [1] (setting [4]), 85.2 ± 16.5 mL/min; in data set [1] (setting [5]) it was 98.0 ± 22.7 mL/min; in data set [1] (setting [6]) it was 106 ± 19.0 mL/min; in data set [1] (setting [7]), 107 ± 33.8 mL/min; in data set [1] (setting [8]), 59.0 ± 31.3 mL/min. In data set [1] (setting [9]), this molecule registered a CL of 36.2 ± 10.0 mL/min. For the same molecule, the Vz in data set [1] (setting [3]) worked out at 20.6 ± 2.45 L; in data set [1] (setting [4]), 23.3 ± 9.84 L; in data set [1] (setting [5]), 21.8 ± 7.36 L; in data set [1] (setting [6]), 23.5 ± 5.65 L; in data set [1] (setting [7]) it was 20.0 ± 4.19 L; in data set [1] (setting [8]), 13.6 ± 5.38 L. Moreover, the Vz in data set [1] (setting [9]) came out at 17.7 ± 1.88 L. The t½ (in general, the time needed for the level to fall by half in the phase considered) is on record as 2.28 ± 0.42 h in data set [1] (setting [3]); 3.29 ± 1.66 h in data set [1] (setting [4]); 2.74 ± 1.35 h in data set [1] (setting [5]); 2.54 ± 0.25 h in data set [1] (setting [6]); 2.28 ± 0.60 h in data set [1] (setting [7]); 2.87 ± 0.69 h in data set [1] (setting [8]). The molecule also came in with a t½ in data set [1] (setting [9]) of 6.04 ± 1.94 h. For the same molecule, the λz in data set [1] (setting [3]) is 0.3127 ± 0.052 h⁻¹; in data set [1] (setting [4]), 0.2510 ± 0.095 h⁻¹; in data set [1] (setting [5]) it was 0.2909 ± 0.0860 h⁻¹; in data set [1] (setting [6]) it was 0.2752 ± 0.0244 h⁻¹; in data set [1] (setting [7]) it was 0.3226 ± 0.084 h⁻¹; in data set [1] (setting [8]) it was 0.2549 ± 0.068 h⁻¹. In data set [1] (setting [9]), this molecule returned a λz of 0.1226 ± 0.033 h⁻¹. For the same molecule, the Tmax (commonly the time from dosing to the highest level) in data set [1] (setting [3]) stood at 0.083 h; in data set [1] (setting [4]), 0.083 h; in data set [1] (setting [5]) it was 0.083 h; in data set [1] (setting [6]), 1.083 h; in data set [1] (setting [7]) it was 0.083 h; in data set [1] (setting [8]), 0.083 h. The time to peak (Tmax) in data set [1] (setting [9]) was found to be 0.083 h. In addition, the “exposure to HPβCD relative to that of itraconazole” value is listed as 1/20 in data set [1] (after a single dose) and “⅛” in data set [1] (after steady state). Further, the figures for the “maximum HPβCD plasma concentration” value in data set [1] (normal healthy subjects) and in data set [1] (subjects with moderate renal impairment) were 70 µg/mL and 106 µg/mL, respectively. The “decrease in CL of HPβCD” value in data set [1] (setting [10]) is listed as 2.4 fold. Also, the “increase in t½ of HPβCD” value in data set [1] (setting [10]) worked out at 1.8 fold. Moreover, the “exposure to HPβCD lower than in healthy subjects administered itraconazole, based on AUC(0-T)” value in data set [1] (setting [11]) was found to be 7.9 fold. Also, the “exposure to HPβCD lower than in healthy subjects administered itraconazole, based on average concentration at steady state (Cav)” value in data set [1] (setting [11]) amounted to 3.9 fold.

For `COc1ccnc(C[S+]([O-])c2nc3ccc(OC(F)F)cc3[nH]2)c1OC` (centres unmarked) [Pantoprazole], in data set [2], the “Vd, volume of distribution” value was 0.15 L/kg; the “K1:1, stability constant of 1:1 inclusion complex with HPβCD” value (shortened to “K1:1, stability constant”) was 420^41 M^−1; the “Prot. bind., drug fraction bound to protein (fP)” value (“Prot. bind., drug fraction bound” below) is 98%; the Cmax was 6500 nM.

`C[C@]12C=CC(=O)C=C1CC[C@@H]1[C@@H]2[C@@H](O)C[C@@]2(C)[C@H]1CC[C@]2(O)C(=O)CO` [Prednisolone]: in data set [2], the “Vd, volume of distribution” value is 1.5 L/kg; the “K1:1, stability constant” value is on record as 2,400^42 M^−1; the “Prot. bind., drug fraction bound” value is reported as 90%; the Cmax was 1300 nM.

As to `CC(C)c1cccc(C(C)C)c1O` [Propofol], the “Prot. bind., drug fraction bound” value in data set [2] was 99%.

On to `CN[C@H]1CC[C@@H](c2ccc(Cl)c(Cl)c2)c2ccccc21` [Sertaline], for which, in data set [2], the “Prot. bind., drug fraction bound” value was 98%.

With `CCCc1nn(C)c2c(=O)[nH]c(-c3cc(S(=O)(=O)N4CCN(C)CC4)ccc3OCC)nc12` [Sildenafil], in data set [2], the “Vd, volume of distribution” value is 1.5 L/kg; the “Prot. bind., drug fraction bound” value is listed as 96%; the Cmax is 930 nM.

On to `CN1CC(=O)N2[C@H](c3ccc4c(c3)OCO4)c3[nH]c4ccccc4c3C[C@@H]2C1=O` [Tadalafil], for which, in data set [2], the “Vd, volume of distribution” value is 0.9 L/kg; the “K1:1, stability constant” value is 360^46 M^−1; the “Prot. bind., drug fraction bound” value is 94%; the Cmax is 1300 nM.

Consider `CCCc1nc2c(C)cc(-c3nc4ccccc4n3C)cc2n1Cc1ccc(-c2ccccc2C(=O)O)cc1` [Telmisartan], for which, in data set [2], the “Vd, volume of distribution” value was 7 L/kg; the “K1:1, stability constant” value is on record as 40,000^47 M^−1; the “Prot. bind., drug fraction bound” value was 99%; the Cmax was 2800 nM. The “K1:1, stability constant” value in data set [2] (listed as telmisartan) is reported as 40,000 M^−1.

Take `C[C@]12CC[C@H]3[C@@H](CCC4=CC(=O)CC[C@@]43C)[C@@H]1CC[C@@H]2O` [Testosterone]: in data set [2], the “Prot. bind., drug fraction bound” value was 98%.
